In US20100137313A1 (ASTRAZENECA AB, priority 2008, published 2010):

The compounds below were run against S. pneumoniae Topoisomerase IV ATPase (ParE) (Streptococcus pneumoniae serotype 4, UniProt Q59961) (assay: S. pneumoniae Topoisomerase IV ATPase inhibition). Details: values marked * are an average of two or more data points, read-out: % Inh (13 μM) of S. pneumoniae Topoisomerase IV ATPase.
Format: biochemical
Method in brief: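 Malachite green/ammonium molybdate phosphate detection, A650. 1.25 nM ParE, 160 μM ATP, sheared salmon sperm DNA 5 μg/ml, 20 mM Tris pH 8.0, 8.0 mM MgCl2. Controls: 2% DMSO = 0%, 20 μM EDTA = 100% inhibition; IC50 over 10 concentrations.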

Chain of S. pneumoniae Topoisomerase IV ATPase (ParE) (Q59961 whole entry): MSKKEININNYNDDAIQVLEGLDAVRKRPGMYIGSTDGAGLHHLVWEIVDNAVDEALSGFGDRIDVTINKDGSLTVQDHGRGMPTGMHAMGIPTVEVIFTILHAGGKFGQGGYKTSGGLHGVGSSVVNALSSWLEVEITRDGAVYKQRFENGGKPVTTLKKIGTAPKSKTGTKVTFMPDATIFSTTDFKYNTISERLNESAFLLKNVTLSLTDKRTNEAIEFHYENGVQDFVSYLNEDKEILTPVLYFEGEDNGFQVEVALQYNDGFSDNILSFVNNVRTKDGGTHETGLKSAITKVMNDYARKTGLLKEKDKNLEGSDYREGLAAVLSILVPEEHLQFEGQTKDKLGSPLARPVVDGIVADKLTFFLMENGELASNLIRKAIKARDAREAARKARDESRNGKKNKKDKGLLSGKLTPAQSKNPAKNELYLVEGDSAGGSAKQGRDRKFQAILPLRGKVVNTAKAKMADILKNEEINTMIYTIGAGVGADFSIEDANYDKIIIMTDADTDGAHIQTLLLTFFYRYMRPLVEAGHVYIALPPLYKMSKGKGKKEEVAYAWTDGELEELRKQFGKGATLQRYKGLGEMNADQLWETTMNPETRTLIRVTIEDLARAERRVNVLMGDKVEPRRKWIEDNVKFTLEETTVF

SMILES	inhibition at 13 µM [%]
CCOC(=O)c1cncc(-c2cnc(Nc3ccc(F)c(Cl)c3)nc2NCc2cnn(C)c2)c1 [Example 148, ethyl 5-(2-(3-chloro-4-fluorophenylamino)-4-((1-methyl-1H-pyrazol-4-yl)methylamino)pyrimidin-5-yl)-nicotinate]	120
CCOC(=O)c1cncc(-c2cnc(Nc3ccc(F)c(Cl)c3)nc2NC(COC)COC)c1 [Example 149, ethyl 5-(2-(3-chloro-4-fluorphenylamino)-4-(1,3-dimethoxypropan-2-ylamino)pyrimidin-5-yl)nicotinate]	82.2
CCOC(=O)c1cncc(-c2cnc(Nc3ccc(F)c(Cl)c3)nc2N2CCN(CCOC)CC2)c1 [Example 150, ethyl 5-(2-(3-chloro-4-fluorophenylamino)-4-(4-(2-methoxyethyl)piperazin-1-yl)pyrimidin-5-yl)nicotinate]	53.3
CCOC(=O)c1cncc(-c2cnc(Nc3ccc(F)c(Cl)c3)nc2N2CCN(C)CC2)c1 [Example 151, ethyl 5-(2-(3-chloro-4-fluorophenylamino)-4-(4-methylpiperazin-1-yl)pyrimidin-5-yl)nicotinate]	50.1
CCOC(=O)c1cncc(-c2cnc(Nc3ccc(F)c(Cl)c3)nc2N2CCCCC2)c1 [Example 152, ethyl 5-(2-(3-chloro-4-fluorophenylamino)-4-(piperidin-1-yl)pyrimidin-5-yl)nicotinate]	0.54
CCOC(=O)/C=C/c1cccc(-c2cnc(Nc3ccc(F)c(Cl)c3)nc2-n2cnc(Cl)c2Cl)c1 [Example 161, ethyl (2E)-3-(3-{2-[(3-chloro-4-fluorophenyl)amino]-4-(4,5-dichloro-1H-imidazol-1-yl)pyrimidin-5-yl}phenyl)prop-2-enoate]	74.8
CCOC(=O)/C=C/c1cccc(-c2cnc(Nc3ccc(F)c(Cl)c3)nc2N2CC(C)OC(C)C2)c1 (stereo not drawn) [Example 163, (E)-ethyl 3-(3-(2-(3-chloro-4-fluorophenylamino)-4-(2,6-dimethylmorpholino)pyrimidin-5-yl)phenyl)acrylate]	55
CCOC(=O)/C=C/c1cccc(-c2cnc(Nc3ccc(F)c(Cl)c3)nc2N2CCN(C(=O)N(C)C)CC2)c1 [Example 164, (E)-ethyl 3-(3-(2-(3-chloro-4-fluorophenylamino)-4-(4-(dimethylcarbamoyl)piperazin-1-yl)pyrimidin-5-yl)phenyl)acrylate]	47
CCOC(=O)/C=C/c1cccc(-c2cnc(Nc3ccc(F)c(Cl)c3)nc2NCCCNC(=O)c2cnc(C)cn2)c1 [Example 165]	56.9
CCOC(=O)/C=C/c1cccc(-c2cnc(Nc3ccc(F)c(Cl)c3)nc2N2CCOCC2)c1 [Example 166, (E)-ethyl 3-(3-(2-(3-chloro-4-fluorophenylamino)-4-morpholinopyrimidin-5-yl)phenyl)acrylate]	37.4
CCOC(=O)/C=C/c1cccc(-c2cnc(Nc3ccc(F)c(Cl)c3)nc2NCCCOC)c1 [Example 167, (E)-ethyl 3-(3-(2-(3-chloro-4-fluorophenylamino)-4-(3-methoxypropylamino)pyrimidin-5-yl)phenyl)acrylate]	31.1
CCOC(=O)/C=C/c1cccc(-c2cnc(Nc3ccc(F)c(Cl)c3)nc2NCc2cnn(C)c2)c1 [Example 168, (E)-ethyl 3-(3-(2-(3-chloro-4-fluorophenylamino)-4-((1-methyl-1H-pyrazol-4-yl)methylamino)pyrimidin-5-yl)phenyl)acrylate]	66.4
CCOC(=O)/C=C/c1cccc(-c2cnc(Nc3ccc(F)c(Cl)c3)nc2N[C@@H]2CCOC2)c1 [Example 169, (R,E)-ethyl 3-(3-(2-(3-chloro-4-fluorophenylamino)-4-(tetrahydrofuran-3-ylamino)pyrimidin-5-yl)phenyl)acrylate]	34.2
CCOC(=O)/C=C/c1cccc(-c2cnc(Nc3ccc(F)c(Cl)c3)nc2N2CCN(C)CC2)c1 [Example 170, (E)-ethyl 3-(3-(2-(3-chloro-4-fluorophenylamino)-4-(4-methylpiperazin-1-yl)pyrimidin-5-yl)phenyl)acrylate]	46
CCOC(=O)/C=C/c1cccc(-c2cnc(Nc3ccc(F)c(Cl)c3)nc2N2CCCCC2)c1 [Example 171, (E)-ethyl 3-(3-(2-(3-chloro-4-fluorophenylamino)-4-(piperidin-1-yl)pyrimidin-5-yl)phenyl)acrylate]	3.62
CCOC(=O)/C=C/c1cccc(-c2cnc(Nc3ccc(F)c(Cl)c3)nc2NCc2cncn2C)c1 [Example 172, (E)-ethyl 3-(3-(2-(3-chloro-4-fluorophenylamino)-4-((1-methyl-1H-imidazol-5-yl)methylamino)pyrimidin-5-yl)phenyl)acrylate]	-32.8
CCOC(=O)/C=C/c1cccc(-c2cnc(Nc3ccc(F)c(Cl)c3)nc2NC(COC)COC)c1 [Example 173, (E)-ethyl 3-(3-(2-(3-chloro-4-fluorophenylamino)-4-(1,3-dimethoxypropan-2-ylamino)pyrimidin-5-yl)phenyl)acrylate]	34.7

SMILES	inhibition at 13 µM [%]
CCOC(=O)/C=C/c1cccc(-c2cnc(Nc3ccc(F)c(Cl)c3)nc2N2CCN(S(C)(=O)=O)CC2)c1 [Example 174, (E)-ethyl 3-(3-(2-(3-chloro-4-fluorophenylamino)-4-(4-(methylsulfonyl)piper-azin-1-yl)pyrimidin-5-yl)phenyl)acrylate]	52.1
CCOC(=O)c1cn(CCOC)c2ccc(-c3cnc(Nc4ccc(F)c(Cl)c4)nc3N3CCOCC3)cc2c1=O [Example 175, ethyl 6-(2-(3-chloro-4-fluorophenylamino)-4-morpholinopyrimidin-5-yl)-1-(2-methoxyethyl)-4-oxo-1,4-dihydroquinoline-3-carboxylate]	80
CCOC(=O)c1cn(CCOC)c2ccc(-c3cnc(Nc4ccc(F)c(Cl)c4)nc3NCCCOC)cc2c1=O [Example 177, ethyl 6-(2-(3-chloro-4-fluorophenylamino)-4-(3-methoxypropylamino)-pyrimidin-5-yl)-1-(2-methoxyethyl)-4-oxo-1,4-dihydroquinoline-3-carboxylate]	68.9
COCCCNc1nc(Nc2ccc(F)c(Cl)c2)ncc1-c1ccc(C(=O)O)s1 [Example 178, 5-(2-(3-chloro-4-fluorophenylamino)-4-(3-methoxypropylamino)-pyrimidin-5-yl)thiophene-2-carboxylic acid]	83
COCCCNc1nc(Nc2ccc(F)c(Cl)c2)ncc1-c1ccc(C(C)=O)s1 [Example 179, 1-(5-(2-(3-chloro-4-fluorophenylamino)-4-(3-methoxypropylamino)-pyrimidin-5-yl)thiophen-2-yl)ethanone]	93.9
COCCCNc1nc(Nc2ccc(F)c(Cl)c2)ncc1-c1ccc2sc(C(=O)OC)cc2c1 [Example 180, methyl 5-(2-(3-chloro-4-fluorophenylamino)-4-(3-methoxypropylamino)-pyrimidin-5-yl)benzo[b]thiopene-2-carboxylate]	-56.9
COCCCNc1nc(Nc2ccc(F)c(Cl)c2)ncc1-c1nc(C(=O)OC)cs1 [Example 212, Methyl 2-(2-(3-chloro-4-fluorophenylamino)-4-(3-methoxypropylamino)pyrimidin-5-yl)thiazole-4-carboxylate]	14.5
Fc1ccc(Nc2ncc(-c3cncnc3)c(N3CCCCCC3)n2)cc1Cl [Example 213, 4-(azepan-1-yl)-N-(3-chloro-4-fluorophenyl)-5-pyrimidin-5-ylpyrimidin-2-amine]	55.8
CN(C)CCCNc1nc(Nc2ccc(F)c(Cl)c2)ncc1-c1cncc(C(=O)O)c1 [Example 214, 5-(2-(3-chloro-4-fluorophenylamino)-4-(3-(dimethylamino)propylamino)pyrimidin-5-yl)nicotinic acid]	101
CN(C)CCCNc1nc(Nc2ccc(F)c(Cl)c2)ncc1-c1ccc(C(=O)O)cc1 [Example 216, 4-(2-[(3-chloro-4-fluorophenyl)amino]-4-{[3-(dimethylamino)propyl]amino}pyrimidin-5-yl)benzoic acid]	96.3
CN(C)CCCNc1nc(Nc2ccc(F)c(Cl)c2)ncc1-c1ccc2sc(C(=O)O)cc2c1 [Example 217, 5-(2-(3-chloro-4-fluorophenylamino)-4-(3-(dimethylamino)propylamino)pyrimidin-5-yl)benzo[b] thiophene-2-carboxylic acid]	82.4
CCCNc1nc(Nc2ccc(F)c(Cl)c2)ncc1-c1cncc(C(=O)O)c1 [Example 218, 5-[2-(3-Chloro-4-fluoro-phenylamino)-4-propylamino-pyrimidin-5-yl]-nicotinic acid]	80.9
O=C(O)c1cncc(-c2cnc(Nc3ccc(F)c(Cl)c3)nc2NCCCN2CCCC2=O)c1 [Example 219, 5-{2-(3-Chloro-4-fluoro-phenylamino)-4-[3-(2-oxo-pyrrolidin-1-yl)-propylamino]-pyrimidin-5-yl}-nicotinic acid]	79
CN(C)CCNc1nc(Nc2ccc(F)c(Cl)c2)ncc1-c1cncc(C(=O)O)c1 [Example 220, 5-[2-(3-Chloro-4-fluoro-phenylamino)-4-(2-dimethylamino-ethylamino)-pyrimidin-5-yl]-nicotinic acid]	79
CC(=O)NCCNc1nc(Nc2ccc(F)c(Cl)c2)ncc1-c1cncc(C(=O)O)c1 [Example 221, 5-[4-(2-Acetylamino-ethylamino)-2-(3-chloro-4-fluoro-phenylamino)-pyrimidin-5-yl]-nicotinic acid]	81
O=C(O)c1cncc(-c2cnc(Nc3ccc(F)c(Cl)c3)nc2NCc2ccccn2)c1 [Example 222, 5-{2-(3-Chloro-4-fluoro-phenylamino)-4-[(pyridin-2-ylmethyl)-amino]-pyrimidin-5-yl]-nicotinic acid]	76.2
